Results reported in ChEMBL document CHEMBL4619745, “Identification of 2-((2,3-dihydrobenzo[b][1,4]dioxin-6-yl)amino)-N-phenylpropanamides as a novel class of potent DprE1 inhibitors” (Bioorg Med Chem Lett, 2020).
Values after ≈ are worked out from the molar mass of the structure shown.

Assays:
[1] = Inhibition of Mycobacterium tuberculosis DprE1
[2] = test system: Mycobacterium tuberculosis; test: Antimycobacterial activity against Mycobacterium tuberculosis H37Rv; format: functional
[3] = Lipophilicity, log D of the compound at pH 7.4; format: physicochemical; settings: buffer
[4] = test system: HepG2; test: Cytotoxicity against human HepG2 cells assessed as reduction in cell viability; format: cell-based

SMILES: CC(C(=O)Nc1ccc(Br)cc1)N(C)c1ccc2c(c1)OCCO2 (centres undefined)
- IC50 [1]: 0.063 µM
- pIC50 [1]: 7.2
- MIC [2]: 2.5 µM (≈ 0.978 µg/mL)
- logD [3]: 6.7

SMILES: CCC(Nc1ccc2c(c1)OCCO2)C(=O)Nc1ccc(Br)cc1 (centres undefined)
- IC50 [1]: 3.98 µM
- pIC50 [1]: 5.4
- MIC [2]: 62 µM (≈ 24.3 µg/mL)
- logD [3]: 6

SMILES: COc1cc(NC(C)C(=O)Nc2ccc(Br)cc2)cc(OC)c1 (centres undefined)
- IC50 [1]: 25.1 µM
- pIC50 [1]: 4.6

SMILES: CNC(=O)C(C)Nc1ccc2c(c1)OCCO2 (centres undefined)
- IC50 [1]: 31.6 µM
- pIC50 [1]: 4.5
- MIC [2]: > 125 µM

SMILES: CC(Oc1ccc2c(c1)OCCO2)C(=O)Nc1ccc(Br)cc1 (centres undefined)
- IC50 [1]: 0.2 µM
- pIC50 [1]: 6.7
- MIC [2]: 12 µM (≈ 4.54 µg/mL)
- logD [3]: 6.2

SMILES: CNC(=O)c1ccc(NC(=O)C(C)Nc2ccc3c(c2)OCCO3)cc1 (centres undefined)
- IC50 [1]: > 100 µM
- pIC50 [1]: < 4
- logD [3]: 2.4

SMILES: CC(Nc1ccc2c(c1)OCCO2)C(=O)Nc1nc2ccccc2[nH]1 (centres undefined)
- IC50 [1]: 3.98 µM
- pIC50 [1]: 5.4
- MIC [2]: 62 µM (≈ 21 µg/mL)
- logD [3]: 3.7

SMILES: CC(Nc1ccc2c(c1)OCCO2)C(=O)Nc1ccc(Br)cn1 (centres undefined)
- IC50 [1]: 6.31 µM
- pIC50 [1]: 5.2
- MIC [2]: 80 µM (≈ 30.3 µg/mL)
- logD [3]: 5.4

SMILES: CC(Nc1ccc2c(c1)OCCO2)C(=O)Nc1ccc(C(F)(F)F)cc1 (centres undefined)
- IC50 [1]: 0.126 µM
- pIC50 [1]: 6.9

SMILES: CC(Nc1cnc2c(c1)OCCO2)C(=O)Nc1ccc(Br)cc1 (centres undefined)
- IC50 [1]: 2 µM
- pIC50 [1]: 5.7
- MIC [2]: 62 µM (≈ 23.5 µg/mL)
- logD [3]: 4

SMILES: CC(Nc1ccc2c(c1)OCCCO2)C(=O)Nc1ccc(Br)cc1 (centres undefined)
- IC50 [1]: 0.158 µM
- pIC50 [1]: 6.8
- MIC [2]: 4 µM (≈ 1.57 µg/mL)
- logD [3]: 5.7

SMILES: CC(Nc1ccc2c(c1)OCCO2)C(=O)Nc1ccc2cc[nH]c2c1 (centres undefined)
- IC50 [1]: 0.794 µM
- pIC50 [1]: 6.1
- MIC [2]: 32 µM (≈ 10.8 µg/mL)
- logD [3]: 4

SMILES: CC(Nc1ccc2c(c1)OCO2)C(=O)Nc1ccc(Br)cc1 (centres undefined)
- IC50 [1]: 1 µM
- pIC50 [1]: 6

SMILES: O=C1C(Cc2ccc3c(c2)OCCO3)CCCN1c1ccc(Br)cc1 (centres undefined)
- IC50 [1]: 63.1 µM
- pIC50 [1]: 4.2
- MIC [2]: 110 µM (≈ 44.3 µg/mL)
- logD [3]: 5.8

SMILES: CC(Nc1ccc2c(c1)OCCO2)C(=O)Nc1ccccc1 (centres undefined)
- IC50 [1]: 63.1 µM
- pIC50 [1]: 4.2
- MIC [2]: > 125 µM
- logD [3]: 4.3

SMILES: CC(C)C(Nc1ccc2c(c1)OCCO2)C(=O)Nc1ccc(Br)cc1 (centres undefined)
- IC50 [1]: 39.8 µM
- pIC50 [1]: 4.4
- MIC [2]: > 125 µM
- logD [3]: 6.6

SMILES: C[C@@H](Nc1ccc2c(c1)OCCO2)C(=O)Nc1ccc(Br)cc1
- IC50 [1]: 0.251 µM
- pIC50 [1]: 6.6
- MIC [2]: 6.5 µM (≈ 2.45 µg/mL)
- logD [3]: 5.5

SMILES: CC(Nc1ccc2c(c1)NC(=O)CO2)C(=O)Nc1ccc(Br)cc1 (centres undefined)
- IC50 [1]: > 100 µM
- pIC50 [1]: < 4
- logD [3]: 4.2

SMILES: Cc1ccc(NC(=O)C(C)Nc2ccc3c(c2)OCCO3)cc1 (centres undefined)
- IC50 [1]: 15.8 µM
- pIC50 [1]: 4.8
- MIC [2]: 125 µM (≈ 39 µg/mL)
- logD [3]: 4.8

SMILES: CC(Nc1ccc2c(c1)NCCC2)C(=O)Nc1ccc(Br)cc1 (centres undefined)
- IC50 [1]: 1.26 µM
- pIC50 [1]: 5.9
- MIC [2]: 125 µM (≈ 46.8 µg/mL)
- logD [3]: 6

SMILES: CC(Nc1ccc2c(c1)OCCO2)C(=O)Nc1ccc(Cl)cc1 (centres undefined)
- IC50 [1]: 0.398 µM
- pIC50 [1]: 6.4
- MIC [2]: 8 µM (≈ 2.66 µg/mL)
- logD [3]: 5.2

SMILES: CC(Nc1ccc2c(c1)OCCO2)C(=O)Nc1ccc(C#N)cc1 (centres undefined)
- IC50 [1]: 2 µM
- pIC50 [1]: 5.7
- MIC [2]: 31 µM (≈ 10 µg/mL)
- logD [3]: 4.2

SMILES: COc1cccc(NC(C)C(=O)Nc2ccc(Br)cc2)c1 (centres undefined)
- IC50 [1]: 1.59 µM
- pIC50 [1]: 5.8

SMILES: CC(Cc1ccc2c(c1)OCCO2)C(=O)Nc1ccc(Br)cc1 (centres undefined)
- IC50 [1]: 2 µM
- pIC50 [1]: 5.7
- MIC [2]: 110 µM (≈ 41.4 µg/mL)

SMILES: CC(Nc1ccc2c(c1)OCCO2)C(=O)Nc1ccc(Br)nc1 (centres undefined)
- IC50 [1]: 1.59 µM
- pIC50 [1]: 5.8
- MIC [2]: 32 µM (≈ 12.1 µg/mL)
- logD [3]: 4.2

SMILES: CC(Nc1ccc(Br)cc1)C(=O)Nc1ccc2c(c1)OCCO2 (centres undefined)
- IC50 [1]: 63.1 µM
- pIC50 [1]: 4.2
- MIC [2]: 125 µM (≈ 47.2 µg/mL)
- logD [3]: 5.3

SMILES: O=C1C(Cc2ccc3c(c2)OCCO3)CCN1c1ccc(Br)cc1 (centres undefined)
- IC50 [1]: 31.6 µM
- pIC50 [1]: 4.5
- MIC [2]: > 125 µM
- logD [3]: 6

SMILES: CC(Nc1ccc2c(c1)NCCO2)C(=O)Nc1ccc(Br)cc1 (centres undefined)
- IC50 [1]: 2.51 µM
- pIC50 [1]: 5.6
- MIC [2]: > 125 µM
- logD [3]: 4.8

SMILES: O=C(CNc1ccc2c(c1)OCCO2)Nc1ccc(Br)cc1
- IC50 [1]: 0.2 µM
- pIC50 [1]: 6.7
- MIC [2]: 16 µM (≈ 5.81 µg/mL)
- logD [3]: 5.1

SMILES: CC(Nc1ccc2c(c1)CCCC2)C(=O)Nc1ccc(Br)cc1 (centres undefined)
- IC50 [1]: 0.631 µM
- pIC50 [1]: 6.2
- MIC [2]: 16 µM (≈ 5.97 µg/mL)
- logD [3]: 7.7

SMILES: CC(Nc1ccc2c(c1)OCCO2)C(=O)Nc1ccc2cn[nH]c2c1 (centres undefined)
- IC50 [1]: 3.98 µM
- pIC50 [1]: 5.4
- MIC [2]: 31 µM (≈ 10.5 µg/mL)
- logD [3]: 3

SMILES: CC(C)(Nc1ccc2c(c1)OCCO2)C(=O)Nc1ccc(Br)cc1
- IC50 [1]: 0.126 µM
- pIC50 [1]: 6.9
- MIC [2]: 4 µM (≈ 1.57 µg/mL)
- logD [3]: 6.3

SMILES: CC(Nc1ccc2c(c1)OCCO2)C(=O)Nc1ccc(-c2cnco2)cc1 (centres undefined)
- IC50 [1]: > 100 µM
- pIC50 [1]: < 4
- logD [3]: 3.7

SMILES: CC(Nc1ccc(Br)cc1)C(=O)Nc1ccc(Br)cc1 (centres undefined)
- IC50 [1]: 3.98 µM
- pIC50 [1]: 5.4

SMILES: CC(Nc1ccc2c(c1)OCCO2)C(=O)NC1CCCCC1 (centres undefined)
- IC50 [1]: 39.8 µM
- pIC50 [1]: 4.4
- MIC [2]: > 125 µM
- logD [3]: 4.4

SMILES: CC(Nc1ccc2c(c1)OCCO2)C(=O)N(C)C (centres undefined)
- IC50 [1]: 39.8 µM
- pIC50 [1]: 4.4
- MIC [2]: > 125 µM
- logD [3]: 2.2

SMILES: CC(Nc1ccc2c(c1)OCCO2)C(=O)Nc1ccc(-c2cccnc2)cc1 (centres undefined)
- IC50 [1]: > 100 µM
- pIC50 [1]: < 4
- logD [3]: 4.2

SMILES: CC(Nc1ccc2c(c1)OCC(=O)N2)C(=O)Nc1ccc(Br)cc1 (centres undefined)
- IC50 [1]: > 100 µM
- pIC50 [1]: < 4
- logD [3]: 3.9

SMILES: C[C@H](Nc1ccc2c(c1)OCCO2)C(=O)Nc1ccc(Br)cc1
- IC50 [1]: 1 µM
- pIC50 [1]: 6
- MIC [2]: 13 µM (≈ 4.9 µg/mL)
- logD [3]: 5.5

SMILES: COc1ccc(NC(C)C(=O)Nc2ccc(Br)cc2)cc1OC (centres undefined)
- IC50 [1]: 2 µM
- pIC50 [1]: 5.7
- MIC [2]: 40 µM (≈ 15.2 µg/mL)
- logD [3]: 5.2

SMILES: CC(Nc1ccc2c(c1)OCCO2)C(=O)Nc1ccc(Br)cc1 (racemic)
- IC50 [1]: 0.063 µM
- pIC50 [1]: 7.2
- MIC [2]: 7.8 µM (≈ 2.94 µg/mL)
- logD [3]: 5.5
- IC50 [4]: > 100 µM

SMILES: NNC(=O)c1ccncc1 [ISONIAZID]
- MIC [2]: 1.8 µM (≈ 0.247 µg/mL)
